Earlier results, collected in patent US20120157405A1, “Methods and Compositions for the Treatment of "Burning Feet Syndrome"” (priority 2010, published 2012).
Read-outs that look alike come from different tables or passages of the source.

Columns and labels:
diabetic neuropathy [1] = conditions: double-blind trial
neuropathic pain = conditions: double-blind study
[2] = test system: symptomatic diabetic polyneuropathy; conditions: symptomatic diabetic polyneuropathy and compressive radiculopathy syndrome from disc-nerve root conflict
[3] = test system: symptomatic diabetic polyneuropathy
mild diabetic neuropathy = conditions: 480 mg daily, after 12 months
[4] = test system: Diabetes-Induced Oxidative Stress In Gastrointestinal Tissues; conditions: exogenously administered, diabetic rats
[5] = test system: jejunal transport of water, Na and Cl; conditions: in vivo jejunal perfusion
diabetic neuropathy [6] = conditions: animal studies
[7] = test system: streptozotocin-induced diabetic rats; conditions: 1.4 to 1.5 g/kg body weight, 7 weeks
[8] = test system: sciatic pain caused by herniated disc
[9] = test system: neuropathy associated with some chemotherapy drugs; conditions: two studies
[10] = test system: chemically induced diabetic rats
[11] = test system: neuropathy associated with diabetes
[12] = test system: cardiac autonomic neuropathy; conditions: people with diabetes
diabetic neuropathy [13] = conditions: over a one-year period
[14] = test system: painful peripheral diabetic neuropathy; conditions: 320 mg/day compared to 150 mg/day, over 6 weeks
[15] = test system: severe diabetic peripheral neuropathy
skin irritation = conditions: topical adjunct skin care
[16] = test system: peripheral neuropathy symptoms; conditions: niacin alone
“Burning Feet Syndrome” [17] = conditions: 53 cases; parenteral calcium pantothenate given after the other vitamins
“Burning Feet Syndrome” [18] = conditions: 6 mg intramuscular injections
[19] = test system: complications among the major targets of diabetes; conditions: in vivo
vitamin B12 deficiency = conditions: oral supplementation only
[20] = test system: nerve conduction and function; conditions: 900 mg, six-month study
peripheral neuropathy = conditions: daily high-dose supplementation for two years, person
[21] = after one year of treatment, all patients

Molecule: O=C(O)CCCCC1CCSS1 (stereo not drawn) [Alpha-lipoic acid]
- sensory symptoms and pain of diabetic neuropathy (diabetic neuropathy [1]): rapidly and significantly reduces sensory symptoms and pain of diabetic neuropathy
- nerve functionality and neuropathic pain (neuropathic pain): helped the recovery of nerve functionality and decrease neuropathic pain
- pain, paresthesia, and numbness [2]: reduced the pain, paresthesia, and numbness
- acute microcirculation occlusion (microcirculation; in vivo): significantly improve
- microcirculation (microcirculation; patients with diabetic polyneuropathy): significant improvement in microcirculation
- time at which TSS improvement was noted ([3]; oral 600 milligrams and 1200 milligrams): 2 weeks
- side effects ([3]; oral 600 to 1800 milligrams): dose-dependent increase in the incidence of nausea
- time at which TSS improvement was noted ([3]; oral 1800 milligrams): the end of the first week
- Total Symptom Score (TSS) ([3]; oral therapy, 600 to 1800 milligrams): significant improvement

Molecule: CCCCC/C=C\C/C=C\C/C=C\CCCCC(=O)O [GLA, gamma linolenic acid]
- outcome versus placebo group (mild diabetic neuropathy): significantly better than the placebo group

Molecule: N=C(N)NCCC[C@H](N)C(=O)O [L-arginine]
- oxidative stress in the gastrointestinal tract [4]: decrease the oxidative stress in the gastrointestinal tract
- jejunal transport of water, Na and Cl [5]: dose-dependent pro-secretor effect

Molecule: CC(=O)N[C@@H](CS)C(=O)O [NAC, N-Acetylcysteine]
- neuropathy (diabetic neuropathy [6]): can inhibit diabetic neuropathy and protect against neuropathies caused by chemotherapy drugs
- effect on diabetic neuropathy [7]: protective effects

Molecule: O=C(O)CCCCC1CCSS1 (centres unmarked) [Thioctic acid]
- treatment of sciatic pain [8]: appears to be effective

Molecule: CC(=O)O[C@H](CC(=O)[O-])C[N+](C)(C)C [acetyl-L-carnitine]
- chemotherapy-associated neuropathy [9]: can limit the neuropathy
- effects on glucose, insulin, or free fatty acids levels (diabetic animals; diabetic animals): without any adverse effects
- nerve conduction velocity (diabetic animals; diabetic animals): maintained near normal nerve conduction velocity
- nerve regeneration (diabetic animals; diabetic nerve degeneration and neuropathy, after experimental injury): accelerated nerve regeneration
- nerve dysfunctions [10]: A number of nerve dysfunctions were corrected
- sural nerve fiber numbers and regenerating nerve fiber clusters ([11]; 52 weeks): significant improvement
- vibratory perception ([11]; both studies): improved
- pain ([11]; daily doses of 500 mg and 1000 mg, 52 weeks): significant reductions in pain
- cardiac autonomic neuropathy [12]: appeared to help prevent or slow cardiac autonomic neuropathy
- nerve conduction velocity and pain (diabetic neuropathy [13]): improved nerve conduction velocity and reduced pain

Molecule: C/C(=C(\CCOP(=O)(O)O)SC(=O)c1ccccc1)N(C=O)Cc1cnc(C)nc1N [benfotiamine]
- alcoholic polyneuropathy (alcoholic polyneuropathy; benfotiamine versus combination with vitamin B6 and B12): significant improvement
- adverse effects (alcoholic polyneuropathy; double-blind study): no therapy-specific adverse effects
- pain and co-ordination (alcoholic polyneuropathy; double-blind study): improvement was evident
- therapeutic effectiveness [14]: most effective in large doses

Molecule: O=C(O)CCCC[C@@H]1SC[C@@H]2NC(=O)N[C@@H]21 [biotin]
- paresthesias [15, 21]: free of paresthesias
- walking distance without help [15, 21]: more than 300 meters
- symptoms of peripheral neuropathy ([15]; within four to eight weeks after biotin administration): objective improvement

Molecule: COc1cc(/C=C/C(=O)CC(=O)/C=C/c2ccc(O)c(OC)c2)ccc1O [curcumin]
- intracellular superoxide anion (O2) production (DM arterioles; DM arterioles, hydroethidine probe, low or high doses): significantly reduced
- diabetes-induced vascular PKC-β11 expression (DM arterioles; high dose): diminished
- Acetylcholine (ACh) responses (DM arterioles; low and high doses (30 and 300 mg/kg)): significantly improved

Molecule: CC(C)(CO)[C@@H](O)C(=O)NCCCO [dexpanthenol]
- symptoms of skin irritation (dryness, roughness, scaling, pruritus, erythema, erosion/fissure) (skin irritation): considerably improves symptoms of skin irritation

Molecule: O=C(O)c1cccnc1 [niacin]
- peripheral neuropathy symptoms [16]: does not help peripheral neuropathy symptoms

Molecule: O=C(O)c1cccnc1 [nicotinic acid]
- outcome of treatment of “Burning Feet Syndrome” (“Burning Feet Syndrome” [17]): failed

Molecule: Cc1cc2nc3c(=O)[nH]c(=O)nc-3n(C[C@H](O)[C@H](O)[C@H](O)CO)c2cc1C [riboflavin]
- outcome of treatment of “Burning Feet Syndrome” (“Burning Feet Syndrome” [17]): failed
- adverse reactions (“Burning Feet Syndrome” [18]): no reported adverse reactions
- time until the burning pain subsided (“Burning Feet Syndrome” [18]): ≤ 3 days

Molecule: NCCS(=O)(=O)O [taurine]
- severity of complications of diabetes (retina, neuron, kidney) [19]: diminishes the severity of complications

Molecule: Cc1ncc(C[n+]2csc(CCO)c2C)c(N)n1 [thiamine]
- outcome of treatment of “Burning Feet Syndrome” (“Burning Feet Syndrome” [17]): failed

Molecule: calcium pantothenate
- outcome of treatment of “Burning Feet Syndrome” (“Burning Feet Syndrome” [17]): cure

Molecule: vitamin B12
- patients with low B12 levels whose deficiency was corrected (vitamin B12 deficiency): ~50%

Molecule: vitamin E
- nerve conduction [20]: mild to moderate defective nerve conduction was improved
- disease progression and neuropathy (peripheral neuropathy): slowed disease progression and produced significant improvement in their neuropathy
